Values quoted from earlier work as cited in US20200360268A1, “INJECTABLE PHARMACEUTICAL COMPOSITION CONTAINING MELOXICAM, AND PREPARATION METHOD THEREFOR” (Jiangsu Hengrui Medicine Co., Ltd., priority 2017, published 2020).
Values after ≈ are worked out from the molar mass of the structure shown.

Details: pH 1.2 and 4.0

Question: With Cc1cnc(NC(=O)C2=C(O)c3ccccc3S(=O)(=O)N2C)s1 [Meloxicam] as the molecule, how does the solubility read?
Answer: The solubility was 0.6 µg/mL (≈ 1.71 µM).
